From patent EP4725941A1, “ARYLAMIDE DERIVATIVE HAVING ANTITUMOR ACTIVITY” (priority 2020, dated 2021)
Like-named read-outs stand apart in the source and are kept apart here.

How the values were obtained:
[1] = Human liver microsome stability; format: in vitro ADME; settings: human liver microsomes, pH 7.4
NCI-H2122 = experiment: Cell proliferation-inhibiting activity (ATP in viable cells, CellTiter-Glo), NCI-H2122; format: cell-based, human; settings: read-out: NCI-H2122 IC50
BRAF = target: T1, BRAF (Homo sapiens, UniProt P15056); experiment: BRAF-inhibiting activity, time-resolved fluorescence-fluorescence resonance energy transfer assay; format: biochemical
T1 construct: purchased Eurofins Genomics KK; (BRAF); Thermo Fisher Scientific Inc. (MEK1)
T1 sequence (P15056 417-766 limits assumed): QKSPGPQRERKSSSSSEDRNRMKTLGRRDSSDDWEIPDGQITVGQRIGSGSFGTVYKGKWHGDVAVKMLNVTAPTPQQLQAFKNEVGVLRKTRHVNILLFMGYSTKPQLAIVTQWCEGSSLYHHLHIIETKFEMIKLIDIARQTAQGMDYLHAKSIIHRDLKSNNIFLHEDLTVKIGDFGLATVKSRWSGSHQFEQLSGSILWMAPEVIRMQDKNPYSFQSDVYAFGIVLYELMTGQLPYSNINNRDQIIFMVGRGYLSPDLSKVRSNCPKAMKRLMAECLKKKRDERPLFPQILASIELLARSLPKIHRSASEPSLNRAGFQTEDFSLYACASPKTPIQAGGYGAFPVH
Experimental: The BRAF-inhibiting activity of the compounds listed in Table 3 below was evaluated by the time-resolved fluorescence-fluorescence resonance energy transfer assay as described below.

Calu-6 = experiment: Cell proliferation-inhibiting activity (ATP in viable cells, CellTiter-Glo), Calu-6; format: cell-based, human; settings: read-out: Calu-6 IC50
A549 = experiment: Cell proliferation-inhibiting activity (ATP in viable cells, CellTiter-Glo), A549; format: cell-based, human; settings: read-out: A549 IC50
MEK1 = target: T2, MEK1 (Homo sapiens, UniProt Q02750); experiment: MEK1-inhibiting activity, fluorescent polarization method (CRAF/MEK1/ERK2 cascade, IMAP); format: biochemical
T2 construct: purchased Thermo Fisher Scientific Inc. (MEK1, CRAF); Carna Biosciences, Inc. (ERK2)
T2 sequence (Q02750 whole entry): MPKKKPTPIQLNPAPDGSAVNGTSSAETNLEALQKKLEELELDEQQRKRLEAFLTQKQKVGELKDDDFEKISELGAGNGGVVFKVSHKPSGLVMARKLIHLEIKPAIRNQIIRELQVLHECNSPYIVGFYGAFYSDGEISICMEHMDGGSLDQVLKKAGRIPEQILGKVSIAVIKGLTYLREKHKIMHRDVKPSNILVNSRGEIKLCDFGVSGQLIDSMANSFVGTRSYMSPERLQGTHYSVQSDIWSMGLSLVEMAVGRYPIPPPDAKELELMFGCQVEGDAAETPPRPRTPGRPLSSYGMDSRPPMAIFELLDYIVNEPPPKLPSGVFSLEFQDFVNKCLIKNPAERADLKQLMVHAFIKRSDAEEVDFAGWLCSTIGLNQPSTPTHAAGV
Experimental: The MEK1-inhibiting activity of the compounds listed in Table 3 below were evaluated by the fluorescent polarization method as described below.

[2] = NCI-H2122, 96 h, human lung cancer cells, 4 days
[3] = Calu-6, 96 h, human lung cancer cells, 4 days
[4] = A549, 96 h, human lung cancer cells, 4 days
[5] = human lung cancer cells, 4 days

Row | Structure (SMILES) | microsomal CLint at 0.99 µM [1] | IC50 (NCI-H2122; [2]) | IC50 (BRAF; read-out: BRAF IC50; Table 3) | IC50 (Calu-6; [3]) | IC50 (A549; [4]) | IC50 (MEK1; Table 3, read-out: MEK1 IC50) | IC50 (BRAF; Table 3; read-out: BRAF IC50) | IC50 (MEK1) | IC50 (NCI-H2122; Homo sapiens, NCI-H2122, 96 h) | IC50 (Calu-6; Homo sapiens, Calu-6, 96 h) | IC50 (A549; Homo sapiens, A549, 96 h) | IC50 (NCI-H2122; [5]) | IC50 (Calu-6; [5]) | IC50 (A549; [5])
1 | CNS(=O)(=O)Nc1nccc(Cc2cc(C(=O)NC3CC3C)c(Nc3ccc(I)cc3F)c(F)c2F)c1F (mixture of isomers) [Compound B-3, 3,4-Difluoro-2-(2-fluoro-4-iodoanilino)-5-[[3-fluoro-2-(methylsulfamoylamino)pyridin-4-yl]methyl]-N-(2-methylcyclopropyl)benzamide (mixture of 4 isomers)] | 22 µL/min/mg | 1 nM | 4 nM | 14 nM | 2 nM | 82 nM |  |  |  |  |  |  |  | 
2 | CNS(=O)(=O)Nc1nccc(Cc2cc(C(=O)N[C@H]3C[C@H]3C)c(Nc3ccc(I)cc3F)c(F)c2F)c1F (racemic) [Compound B-4, 3,4-Difluoro-2-(2-fluoro-4-iodoanilino)-5-[[3-fluoro-2-(methylsulfamoylamino)pyridin-4-yl]methyl]-N-[(1S, 2R)-(+/-)-2-methylcyclopropyl]benzamide (racemate)] | 28 µL/min/mg | 1 nM |  | 6 nM | 2 nM |  | 5 nM | 19 nM |  |  |  |  |  | 
3 | CNS(=O)(=O)Nc1nccc(Cc2cc(C(=O)N[C@@H]3C[C@H]3C)c(Nc3ccc(I)cc3F)c(F)c2F)c1F (racemic) [Compound B-5, 3,4-Difluoro-2-(2-fluoro-4-iodoanilino)-5-[[3-fluoro-2-(methylsulfamoylamino)pyridin-4-yl]methyl]-N-[(1R, 2R)-(+/-)-2-methylcyclopropyl]benzamide (racemate)] | 22 µL/min/mg | 5 nM |  | 29 nM | 7 nM |  | 6 nM | 93 nM |  |  |  |  |  | 
4 | CNS(=O)(=O)Nc1nccc(Cc2cc(C(=O)NC3CC3(F)F)c(Nc3ccc(I)cc3F)c(F)c2F)c1F (racemic) [Compound B-6, (+/-)-N-(2,2-Difluorocyclopropyl)-3,4-difluoro-2-(2-fluoro-4-iodoanilino)-5-[[3-fluoro-2-(methylsulfamoylamino)pyridin-4-yl]methyl]benzamide (racemate)] | 20 µL/min/mg | 1 nM |  | 16 nM | 2 nM |  | 15 nM | 97 nM |  |  |  |  |  | 
5 | CNS(=O)(=O)Nc1nccc(Cc2cc(C(N)=O)c(Nc3ccc(C4CC4)cc3F)c(F)c2F)c1F [Compound A-1, 2-(4-cyclopropyl-2-fluoroanilino)-3,4-difluoro-5-[[3-fluoro-2-(methylsulfamoylamino)pyridin-4-yl]methyl]benzamide] | 1 µL/min/mg |  |  |  |  | 17 nM | 1 nM |  | 5 nM | 64 nM | 26 nM |  |  | 
6 | NS(=O)(=O)Nc1nccc(Cc2cc(C(=O)NC3CC3)c(Nc3ccc(I)cc3F)c(F)c2F)c1F [Compound A-3, N-Cyclopropyl-3,4-difluoro-2-(2-fluoro-4-iodoanilino)-5-[[3-fluoro-2-(sulfamoylamino)pyridin-4-yl]methyl]benzamide] | 10 µL/min/mg | 13 nM | 5 nM | 28 nM | 25 nM | 31 nM |  |  |  |  |  |  |  | 
7 | CCS(=O)(=O)Nc1nccc(Cc2cc(C(=O)NC3CC3)c(Nc3ccc(I)cc3F)c(F)c2F)c1F [Compound A-39] |  | 7 nM | 14 nM | 79 nM | 30 nM | 41 nM |  |  |  |  |  |  |  | 
8 | COCC1(S(=O)(=O)Nc2cccc(Cc3cc(C(=O)NOC)c(Nc4ccc(I)cc4F)c(F)c3F)c2F)CC1 [Compound E-3] |  |  |  |  |  | 33 nM | 5 nM |  |  |  |  | 2 nM | 7 nM | 4 nM
9 | CS(=O)(=O)Nc1cccc(Cc2cc(C(N)=O)c(Nc3ccc(I)cc3F)c(F)c2F)c1F [Compound E-13, 3,4-difluoro-2-(2-fluoro-4-iodoanilino)-5-[[2-fluoro-3-(methanesulfonamide)phenyl]methyl]benzamide] |  |  | 1 nM |  |  |  |  |  |  |  |  | 6 nM | 84 nM | 30 nM
10 | CONC(=O)c1cc(Cc2cccc(NS(C)(=O)=O)c2F)c(F)c(F)c1Nc1ccc(I)cc1F [Compound E-26, 3,4-Difluoro-2-(2-fluoro-4-iodoanilino)-5-[[2-fluoro-3-(methanesulfonamide)phenyl]methyl]-N-methoxybenzamide] | 13 µL/min/mg | 0.6 nM | 6 nM | 5 nM |  | 13 nM |  |  |  |  |  |  |  | 
